Consider 14 molecules from patent US7786308B2 (priority 2005, dated 2010).

Common to all, as to assay: cell-based
One assay addresses T1, M4 muscarinic receptor (Homo sapiens, UniProt P08173).
T1 construct: expressed in transfected cells; host or cells: CHO (M4-CHO)
T1 sequence (P08173 1-479): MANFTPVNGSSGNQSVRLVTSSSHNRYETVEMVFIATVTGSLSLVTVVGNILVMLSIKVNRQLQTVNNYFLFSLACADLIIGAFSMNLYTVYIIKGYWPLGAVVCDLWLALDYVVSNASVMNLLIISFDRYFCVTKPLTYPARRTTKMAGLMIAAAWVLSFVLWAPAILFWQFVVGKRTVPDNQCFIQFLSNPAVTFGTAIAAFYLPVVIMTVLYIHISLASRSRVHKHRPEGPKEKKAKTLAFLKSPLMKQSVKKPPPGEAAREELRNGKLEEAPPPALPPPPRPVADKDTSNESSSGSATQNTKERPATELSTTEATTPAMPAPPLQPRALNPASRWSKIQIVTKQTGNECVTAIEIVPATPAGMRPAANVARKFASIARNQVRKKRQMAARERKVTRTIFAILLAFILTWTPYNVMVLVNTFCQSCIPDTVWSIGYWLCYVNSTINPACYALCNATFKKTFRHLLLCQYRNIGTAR
The settings on record: for Emax: read-out: M4 Efficacy.

A further assay has as its target T2, M2 muscarinic receptor (Homo sapiens, UniProt P08172).
T2 construct: expressed in transfected cells; host or cells: CHO (M2-CHO)
T2 sequence (P08172 1-466): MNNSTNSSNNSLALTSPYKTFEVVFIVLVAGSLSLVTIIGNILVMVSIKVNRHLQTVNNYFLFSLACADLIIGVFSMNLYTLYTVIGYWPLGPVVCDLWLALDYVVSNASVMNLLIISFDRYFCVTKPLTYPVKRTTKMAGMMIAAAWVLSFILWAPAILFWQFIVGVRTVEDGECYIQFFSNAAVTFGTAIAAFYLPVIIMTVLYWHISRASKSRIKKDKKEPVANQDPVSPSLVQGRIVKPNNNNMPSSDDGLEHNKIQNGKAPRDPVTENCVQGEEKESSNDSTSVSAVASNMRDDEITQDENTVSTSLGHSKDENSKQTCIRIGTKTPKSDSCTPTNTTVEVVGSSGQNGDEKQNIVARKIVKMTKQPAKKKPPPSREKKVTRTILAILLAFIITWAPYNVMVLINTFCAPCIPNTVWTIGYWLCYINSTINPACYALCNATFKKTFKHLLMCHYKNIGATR
The settings on record: for Emax: read-out: M2 Efficacy.

For a further assay, the target named is T3, M1 muscarinic receptor (Homo sapiens, UniProt P11229).
T3 construct: expressed in transfected cells; host or cells: CHO (M1-CHO)
T3 sequence (P11229 1-460): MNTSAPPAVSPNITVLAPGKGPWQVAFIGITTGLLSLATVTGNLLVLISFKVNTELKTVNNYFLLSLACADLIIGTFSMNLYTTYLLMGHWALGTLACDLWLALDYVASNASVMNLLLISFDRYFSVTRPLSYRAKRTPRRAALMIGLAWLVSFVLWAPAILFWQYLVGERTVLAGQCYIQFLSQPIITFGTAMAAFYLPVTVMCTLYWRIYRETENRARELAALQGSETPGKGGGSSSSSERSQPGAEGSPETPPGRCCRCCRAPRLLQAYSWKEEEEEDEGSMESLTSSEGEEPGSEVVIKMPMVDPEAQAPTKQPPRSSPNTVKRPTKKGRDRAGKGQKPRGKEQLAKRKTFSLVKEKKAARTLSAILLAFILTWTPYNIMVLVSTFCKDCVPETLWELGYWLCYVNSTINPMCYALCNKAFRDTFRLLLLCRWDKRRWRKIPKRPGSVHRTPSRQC
To be noted: for Emax: read-out: M1 Efficacy.

For another assay, the target named is T4, M3 muscarinic receptor (Homo sapiens, UniProt P20309).
T4 construct: expressed in transfected cells; host or cells: CHO (M3-CHO)
T4 sequence (P20309 whole entry): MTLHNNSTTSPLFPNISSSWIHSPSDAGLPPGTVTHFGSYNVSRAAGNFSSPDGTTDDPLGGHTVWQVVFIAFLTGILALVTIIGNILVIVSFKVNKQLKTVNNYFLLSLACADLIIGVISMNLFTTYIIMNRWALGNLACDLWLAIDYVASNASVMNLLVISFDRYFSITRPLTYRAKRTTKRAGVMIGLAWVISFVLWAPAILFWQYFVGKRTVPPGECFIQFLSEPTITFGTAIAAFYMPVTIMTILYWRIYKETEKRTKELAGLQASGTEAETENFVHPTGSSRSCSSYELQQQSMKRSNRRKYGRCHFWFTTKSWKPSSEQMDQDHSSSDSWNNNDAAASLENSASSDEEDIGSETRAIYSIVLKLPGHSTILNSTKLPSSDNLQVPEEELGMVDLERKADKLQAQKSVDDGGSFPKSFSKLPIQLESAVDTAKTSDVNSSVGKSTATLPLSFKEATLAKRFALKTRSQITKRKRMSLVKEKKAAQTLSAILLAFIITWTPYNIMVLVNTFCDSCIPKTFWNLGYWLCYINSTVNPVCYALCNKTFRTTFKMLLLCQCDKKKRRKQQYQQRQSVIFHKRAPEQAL
To be noted: for Emax: read-out: M3 Efficacy.

Molecules are shown by their SMILES. Read-outs that look alike come from different tables or passages of the source.

Take `CCOC(=O)N1C2CCC1CC(N1CCC(N(c3ccc(F)cc3)S(C)(=O)=O)CC1)C2` (stereo not drawn) [Compound 71, 3-{4-[(4-Fluoro-phenyl)-methanesulfonyl-amino]-piperidin-1-yl}-8-aza-bicyclo[3.2.1]octane-8-carboxylic acid ethyl ester]: the EC50 on M4 muscarinic receptor is 2 to 5 µM; at M2 muscarinic receptor, above 5 µM; on M1 muscarinic receptor it was below 2 µM; on M3 muscarinic receptor, above 5 µM. Further, the Emax at M4 muscarinic receptor was 25 to 100%; on M2 muscarinic receptor it was below 25%; on M1 muscarinic receptor it was 25 to 100%; at M3 muscarinic receptor it was 25 to 100%.
Regarding `CCOC(=O)N1C2CCC1CC(N1CCC(N(C(C)=O)C3CCCCC3)CC1)C2` (stereo not drawn) [Compound 63], the EC50 at M4 muscarinic receptor is below 2 µM; on M2 muscarinic receptor, 2 to 5 µM; on M1 muscarinic receptor it was below 2 µM; on M3 muscarinic receptor it was 2 to 5 µM. The Emax on M4 muscarinic receptor was 25 to 100%; on M2 muscarinic receptor, below 25%; on M1 muscarinic receptor, 25 to 100%; on M3 muscarinic receptor, 25 to 100%.
`CCCN(C1CCN(C2CC3CCC(C2)N3C(=O)OCC)CC1)S(=O)(=O)c1ccc(C(F)(F)F)cc1` (stereo not drawn) [Compound 19]: the EC50 on M4 muscarinic receptor, on M2 muscarinic receptor, at M1 muscarinic receptor and on M3 muscarinic receptor was above 5 µM in each case. Further, the Emax at M4 muscarinic receptor, at M2 muscarinic receptor, at M1 muscarinic receptor and on M3 muscarinic receptor was below 25% in each case.
Consider `CCOC(=O)N1C2CCC1CC(N1CCC(N(C)c3ccccc3)CC1)C2` (stereo not drawn) [Compound 27], for which the EC50 on M4 muscarinic receptor is above 5 µM; on M2 muscarinic receptor it was above 5 µM; at M1 muscarinic receptor it was below 2 µM; on M3 muscarinic receptor, above 5 µM. For the same molecule, the Emax was below 25% on M4 muscarinic receptor, below 25% on M2 muscarinic receptor, 25 to 100% on M1 muscarinic receptor and below 25% on M3 muscarinic receptor.
As to `CCOC(=O)N1C2CCC1CC(N1CCC(N(CC)c3ccccc3)CC1)C2` (stereo not drawn) [Compound 37, 3-[4-(ethyl-phenyl-amino)-piperidin-1-yl]-8-azabicyclo[3.2.1]octane-8-carboxylic acid ethyl ester], the EC50 was below 2 µM at M4 muscarinic receptor, above 5 µM on M2 muscarinic receptor, below 2 µM on M1 muscarinic receptor and above 5 µM at M3 muscarinic receptor. In addition, the Emax was below 25% at M4 muscarinic receptor, below 25% on M2 muscarinic receptor, 25 to 100% at M1 muscarinic receptor and below 25% at M3 muscarinic receptor.
As for `CCOC(=O)N1C2CCC1CC(N1CCC3(CCC(=O)N3c3ccccc3)CC1)C2` (stereo not drawn) [Compound 88, Ethyl 3-(2-oxo-1-phenyl-1,8-diazaspiro[4.5]decan-8-yl)-8-azabicyclo[3.2.1]octane-8-carboxylate], on M4 muscarinic receptor, the EC50 is below 2 µM and the “M4 Efficacy” value was “++ (key: +++: efficacy was calculated to be greater than 100%; ++: efficacy was calculated to be from 100% to 25%; +: efficacy was calculated to be less than 25%; −: no data was available)”. Besides, at M2 muscarinic receptor, the EC50 was below 2 µM and the “M2 Efficacy” value is “++ (key: +++: efficacy was calculated to be greater than 100%; ++: efficacy was calculated to be from 100% to 25%; +: efficacy was calculated to be less than 25%; −: no data was available)”. At M1 muscarinic receptor, the EC50 is below 2 µM and the “M1 Efficacy” value is given as “++ (key: +++: efficacy was calculated to be greater than 100%; ++: efficacy was calculated to be from 100% to 25%; +: efficacy was calculated to be less than 25%; −: no data was available)”. Further, on M3 muscarinic receptor, the EC50 was above 5 µM and the “M3 Efficacy” value is reported as “+ (key: +++: efficacy was calculated to be greater than 100%; ++: efficacy was calculated to be from 100% to 25%; +: efficacy was calculated to be less than 25%; −: no data was available)”.
For the molecule `CCOC(=O)N1C2CCC1CC(N1CCC(N(Cc3ccccc3)C(C)=O)CC1)C2` (stereo not drawn) [Compound 35], the EC50 at M4 muscarinic receptor was 2 to 5 µM; at M2 muscarinic receptor it was above 5 µM; at M1 muscarinic receptor, below 2 µM; at M3 muscarinic receptor it was above 5 µM. In addition, the Emax at M4 muscarinic receptor, at M2 muscarinic receptor, on M1 muscarinic receptor and at M3 muscarinic receptor was 25 to 100% in each case.
In the case of `CCOC(=O)N1C2CCC1CC(N1CCC(N(C(C)=O)C3CCCC3)CC1)C2` (stereo not drawn) [Compound 15], the EC50 is below 2 µM on M4 muscarinic receptor, below 2 µM on M2 muscarinic receptor, below 2 µM at M1 muscarinic receptor and 2 to 5 µM at M3 muscarinic receptor. In addition, the Emax at M4 muscarinic receptor, on M2 muscarinic receptor, at M1 muscarinic receptor and on M3 muscarinic receptor was 25 to 100% throughout.
Regarding `CCOC(=O)N1C2CCC1CC(N1CCC(N(C(C)=O)C(C)C)CC1)C2` (stereo not drawn) [Compound 60], the EC50 was above 5 µM at M4 muscarinic receptor, above 5 µM on M2 muscarinic receptor, 2 to 5 µM at M1 muscarinic receptor and above 5 µM on M3 muscarinic receptor. In addition, the Emax at M4 muscarinic receptor is below 25%; at M2 muscarinic receptor, below 25%; on M1 muscarinic receptor, 25 to 100%; on M3 muscarinic receptor, below 25%.
Regarding `CCOC(=O)N1C2CCC1CC(N1CCC(N(CC(=O)CC)c3ccc(F)cc3)CC1)C2` (stereo not drawn) [Compound 20], the EC50 on M4 muscarinic receptor was above 5 µM; at M2 muscarinic receptor it was above 5 µM; on M1 muscarinic receptor it was below 2 µM; on M3 muscarinic receptor, above 5 µM. Besides, the Emax on M4 muscarinic receptor was below 25%; on M2 muscarinic receptor, below 25%; on M1 muscarinic receptor, 25 to 100%; on M3 muscarinic receptor, below 25%.
As to `CCOC(=O)N1C2CCC1CC(N1CCC(N(CC(C)C)S(=O)(=O)c3ccc(C(F)(F)F)cc3)CC1)C2` (stereo not drawn) [Compound 28], the EC50 at M4 muscarinic receptor, at M2 muscarinic receptor, at M1 muscarinic receptor and on M3 muscarinic receptor was above 5 µM throughout. Further, the Emax on M4 muscarinic receptor, at M2 muscarinic receptor, on M1 muscarinic receptor and on M3 muscarinic receptor was below 25% each time.
As for `CCOC(=O)N1C2CCC1CC(N1CCC(N(C)c3ccc(F)cc3)CC1)C2` (stereo not drawn) [Compound 9], the EC50 on M4 muscarinic receptor, on M2 muscarinic receptor, at M1 muscarinic receptor and at M3 muscarinic receptor was above 5 µM throughout. Besides, the Emax at M4 muscarinic receptor was 25 to 100%; on M2 muscarinic receptor it was below 25%; on M1 muscarinic receptor, 25 to 100%; on M3 muscarinic receptor, below 25%.
As to `CCOC(=O)N1C2CCC1CC(N1CCC(N(CC(=O)CC)c3ccc(F)cc3)CC1)C2` (stereo not drawn) [Compound 25], the EC50 on M4 muscarinic receptor (read-out: M4 Activity) was above 5 µM; at M2 muscarinic receptor (read-out: M2 Activity) it was above 5 µM; at M1 muscarinic receptor (read-out: M1 Activity), below 2 µM; at M3 muscarinic receptor (read-out: M3 Activity), above 5 µM.
In the case of `CCOC(=O)N1C2CCC1CC(N1CCC(Nc3ccc(F)cc3)CC1)C2` (stereo not drawn) [Compound 64, 3-[4-(4-Fluoro-phenylamino)-piperidin-1-yl]-8-aza-bicyclo[3.2.1]octane-8-carboxylic acid ethyl ester], the EC50 is above 5 µM at M4 muscarinic receptor, above 5 µM at M2 muscarinic receptor, 2 to 5 µM on M1 muscarinic receptor and above 5 µM at M3 muscarinic receptor. The Emax on M4 muscarinic receptor is below 25%; at M2 muscarinic receptor it was below 25%; on M1 muscarinic receptor, 25 to 100%; on M3 muscarinic receptor, below 25%.
